Among the data in patent US7148229B2, “Sulfonamide substituted xanthine derivatives” (Hoffman-La Roche Inc., priority 2003, dated 2006) are IC50 values, retold here.

SMILES strings stand for the structures.

This assay deals with T1, recombinant human cytosolic PEPCK (GST-PEPCK) (Homo sapiens, UniProt P35558).
T1 construct: made in house; host or cells: E. coli
T1 sequence (P35558 1-622): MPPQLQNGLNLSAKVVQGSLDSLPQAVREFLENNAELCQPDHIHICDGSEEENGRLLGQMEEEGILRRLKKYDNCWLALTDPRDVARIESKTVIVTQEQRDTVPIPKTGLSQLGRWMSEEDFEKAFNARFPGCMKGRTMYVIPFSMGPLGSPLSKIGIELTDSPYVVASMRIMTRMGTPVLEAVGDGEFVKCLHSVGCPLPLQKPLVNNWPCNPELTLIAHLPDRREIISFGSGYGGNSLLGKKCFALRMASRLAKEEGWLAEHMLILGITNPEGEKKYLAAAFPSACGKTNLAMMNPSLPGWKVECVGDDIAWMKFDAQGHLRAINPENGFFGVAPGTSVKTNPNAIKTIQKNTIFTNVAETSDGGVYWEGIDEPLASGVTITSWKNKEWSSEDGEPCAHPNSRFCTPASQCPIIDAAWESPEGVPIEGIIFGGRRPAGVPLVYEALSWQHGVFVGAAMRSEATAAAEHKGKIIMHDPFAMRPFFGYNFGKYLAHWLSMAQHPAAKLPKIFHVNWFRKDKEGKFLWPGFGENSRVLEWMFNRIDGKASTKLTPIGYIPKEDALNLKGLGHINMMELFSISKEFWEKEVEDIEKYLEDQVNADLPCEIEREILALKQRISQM
Nature of the assay: PEPCK enzyme assay (coupled to pyruvate kinase / lactate dehydrogenase, absorbance at 340 nm). The settings on record: in vitro PEPCK enzymatic assay; GTP at 3 fold and OAA at 10 fold Km; final DMSO 10%; room temperature, twenty minutes. It is filed as biochemical. As to the method:
E. coli cells expressing GST-PEPCK were suspended in 5 volumes of lysis buffer (50 mM Tris-hydroxymethyl aminomethyl (TRIS), 150 mM sodium chloride (NaCl), 10 mM ethylene-diametetraacetic acid (EDTA), 5 mM dithiothreitol(DTT), 1% Nonidet P-40, pH 7.4) in the presence of protease inhibitors, incubated with lysozyme at 200 micrograms/ml for 30 min. at room temperature, and sonicated 4×30 seconds at 4 degrees C. After centrifugation at 12,000×g for 20 min. to remove insoluble material, the supernatant was loaded onto glutathione Sepharose (Pharmacia), washed with lysis buffer followed by washing with lysis buffer in the absence of NP-40. GST-PEPCK was eluted with the same buffer containing 20 mM glutathione. The eluted protein was concentrated and dialyzed against 25 mM Hepes(N-[2-hydroxyethyl]piperazine-N′[2-ethanesulfonic acid), 150 mM NaCl, 2.5 mM EDTA, 5 mM DTT, 30% glycerol, pH 7.4, and stored at −20° C.
The inhibitory effect of the compounds of the present invention on PEPCK enzymatic activity was determined using recombinant human cytosolic PEPCK, expressed and purified from E.coli as a GST-fusion. Guanosine triphosphate (GTP) and manganese dependent PEPCK enzyme activity catalyzed the decarboxylation of oxalacetate leading to the formation of guanosine diphosphate (GDP) and phosphoenol pyruvate (PEP). This reaction is coupled to pyruvate kinase and lactate dehydrogenase catalyzed reactions and the overall reaction rate determined by measuring the change in absorbance at 340 nm (Chang, H. C. and Lane M. D., J. Biol. Chem. 241:2413–2420, 1966). The following modifications were made to the protocol: 2.5 μg of recombinant, human cytosolic glutathione-S-transferase (GST)-PEPCK was added to a reaction mixture at room temperature which contained 0.3 mM GTP, 0.3 mM oxaloacetate (OAA), 3 mM magnesium chloride (MgCl2), 0.075 mM manganese chloride (MnCl2), 30 mM potassium phosphates (KPO4), pH 7.6, 1 mM dithiothreitol (DTT), 0.2 mM adenosine diphosphate (ADP), 1 mM nicotinamide adenine dinucleotide, reduced form (NADH), 0.9 Units/ml each of pyruvate kinase and lactate dehydrogenase and 1 mg/ml bovine serum albumin (BSA). Test compounds were added such that final concentration of DMSO was 10%. Reactions were run for twenty minutes.
Km values for GTP and OAA were determined according to Michelis-Menton conditions as described in Comish-Bowden (Fundamentals of Enzyme Kinetics, 1995) in essentially the coupled assay conditions described above. […] Test compounds were added to reactions over a range of concentrations and IC50's were calculated from plots of inhibitor concentration versus enzyme rate. This method of determination of IC50 values is equally applicable to calculations based on PEPCK cellular assay.
As to `CS(=O)(=O)Nc1ccc(Cc2nc3c([nH]2)c(=O)n(Cc2ccccc2F)c(=O)n3CC2CC2)cc1` [Example 23, N-{4-[3-Cyclopropylmethyl-1-(2-fluoro-benzyl)-2,6-dioxo-2,3,6,7-tetrahydro-1H-purin-8-ylmethyl]-phenyl}-methanesulfonamide], the half-maximal inhibitory concentration (IC50) (usually the concentration needed to halve the response being measured) turned out to be 1.25 µM.
To `CCCCn1c(=O)n(Cc2ccccc2)c(=O)c2[nH]c(Cc3ccc(NS(C)(=O)=O)cc3)nc21` [Example 24, N-[4-(1-Benzyl-3-butyl-2,6-dioxo-2,3,6,7-tetrahydro-1H-purin-8-ylmethyl)-phenyl]-methanesulfonamide] belongs 7.55 µM.
To `CCCCn1c(=O)n(Cc2ccccc2F)c(=O)c2[nH]c(Cc3ccc(NS(=O)(=O)c4c(C)nn(C)c4Cl)cn3)nc21` [Example 25, 5-Chloro-1,3-dimethyl-1H-pyrazole-4-sulfonic acid {6-[3-butyl-1-(2-fluoro-benzyl)-2,6-dioxo-2,3,6,7-tetrahydro-1H-purin-8-ylmethyl]-pyridin-3-yl}-amide] belongs 0.88 µM; to `Cc1nn(C)c(Cl)c1S(=O)(=O)Nc1ccc(Cc2nc3c([nH]2)c(=O)n(Cc2ccccc2F)c(=O)n3CC2CCC2)nc1` [Example 26, 5-Chloro-1,3-dimethyl-1H-pyrazole-4-sulfonic acid {6-[3-cyclobutylmethyl-1-(2-fluoro-benzyl)-2,6-dioxo-2,3,6,7-tetrahydro-1H-purin-8-ylmethyl]-pyridin-3-yl}-amide], 0.98 µM; to `Cc1nn(C)cc1S(=O)(=O)N(C)c1ccc(Cc2nc3c([nH]2)c(=O)n(Cc2ccccc2F)c(=O)n3CC2CC2)cc1` [Example 27, 1,3-Dimethyl-1H-pyrazole-4-sulfonic acid {4-[3-cyclopropylmethyl-1-(2-fluoro-benzyl)-2,6-dioxo-2,3,6,7-tetrahydro-1H-purin-8-ylmethyl]-phenyl}-methyl-amide], 1.45 µM.
To `CCCCn1c(=O)n(Cc2ccccc2F)c(=O)c2[nH]c(Cc3ccc(S(=O)(=O)Nc4ccccn4)cc3)nc21` [Example 28, 4-[3-Butyl-1-(2-fluoro-benzyl)-2,6-dioxo-2,3,6,7-tetrahydro-1H-purin-8-ylmethyl]-N-pyridin-2-yl-benzenesulfonamide] belongs 2.4 µM.
As for `CCCCn1c(=O)n(Cc2ccccc2F)c(=O)c2[nH]c(Cc3ccc(S(=O)(=O)Nc4ccncc4)cc3)nc21` [Example 29, 4-[3-Butyl-1-(2-fluoro-benzyl)-2,6-dioxo-2,3,6,7-tetrahydro-1H-purin-8-ylmethyl]-N-pyridin-4-yl-benzenesulfonamide], the IC50 stood at 2.4 µM.
For `CCCCn1c(=O)n(Cc2ccccc2F)c(=O)c2[nH]c(Cc3ccc(S(=O)(=O)Nc4cccnc4)cc3)nc21` [Example 30, 4-[3-Butyl-1-(2-fluoro-benzyl)-2,6-dioxo-2,3,6,7-tetrahydro-1H-purin-8-ylmethyl]-N-pyridin-3-yl-benzenesulfonamide], the IC50 was 4.1 µM.
As for `CCCCn1c(=O)n(Cc2ccccc2F)c(=O)c2[nH]c(Cc3ccc(S(=O)(=O)Nc4ncccn4)cc3)nc21` [Example 31, 4-[3-Butyl-1-(2-fluoro-benzyl)-2,6-dioxo-2,3,6,7-tetrahydro-1H-purin-8-ylmethyl]-N-pyrimidin-2-yl-benzenesulfonamide], the figure is 6.35 µM; as for `CCCCn1c(=O)n(Cc2ccccc2F)c(=O)c2[nH]c(Cc3ccc(S(=O)(=O)Nc4c(C)nn(C)c4C)cc3)nc21` [Example 32, 4-[3-Butyl-1-(2-fluoro-benzyl)-2,6-dioxo-2,3,6,7-tetrahydro-1H-purin-8-ylmethyl]-N-(1,3,5-trimethyl-1H-pyrazol-4-yl)-benzenesulfonamide], 6.45 µM.
